Results from ChEMBL document CHEMBL1201862, “PubChem BioAssay data set” (2004).
Each block holds one molecule with its values, some of them ahead of it. The source made the active and inactive calls.

Experiments:
[1] = NIH-3T3 fibroblast cytotoxicity, dose response, cytotoxicity control, cell-based, fluorescence, Alamar Blue, secondary assay (AID 2327); type: functional;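 also: NIH-3T3 mouse fibroblasts cultured with fluconazole at 8 µg/mL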
[2] = fluconazole-exposed Candida albicans growth modulators – fluorescence, retest, confirmation (AID 2467); type: functional, cell-based
[3] = target: T1, Heat shock factor protein 1 (Mus musculus, UniProt P38532); assay: decrease of HSF1-responsive luciferase luminescence – cell-based, NIH3T3, dose retest, confirmation (AID 2382); type: functional;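 also: NIH3T3 fibroblasts with HSF1-driven luciferase reporter stressed by proteasome inhibitor MG132; luminescence from HSF1-driven luciferase expression after 8 hours of MG132 stress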
T1 sequence (P38532 whole entry): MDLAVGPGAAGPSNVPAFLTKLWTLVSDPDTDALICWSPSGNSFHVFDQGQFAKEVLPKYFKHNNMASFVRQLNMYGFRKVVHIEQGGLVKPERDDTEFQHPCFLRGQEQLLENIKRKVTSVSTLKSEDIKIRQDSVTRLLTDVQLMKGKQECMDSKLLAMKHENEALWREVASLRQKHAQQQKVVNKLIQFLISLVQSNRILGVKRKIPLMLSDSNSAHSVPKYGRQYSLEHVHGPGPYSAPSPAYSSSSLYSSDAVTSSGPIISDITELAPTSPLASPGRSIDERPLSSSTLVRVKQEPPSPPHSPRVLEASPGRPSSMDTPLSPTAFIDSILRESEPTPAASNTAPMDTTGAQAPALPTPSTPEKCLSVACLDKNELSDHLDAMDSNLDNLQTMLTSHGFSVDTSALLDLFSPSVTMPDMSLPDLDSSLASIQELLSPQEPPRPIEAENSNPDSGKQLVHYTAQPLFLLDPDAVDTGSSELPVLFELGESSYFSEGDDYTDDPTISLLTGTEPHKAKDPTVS

[4] = viability of uninfected HEp-2 cells – cell-based, HTS, cytotoxicity control for RSV inhibitor project, dose response (AID 2410); type: functional; settings: human respiratory syncytial virus
[5] = Trypanosoma cruzi growth suppression in host cells – NIH3T3 host cells, beta-gal luminescence, confirmation (AID 2044); type: functional, cell-based;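 also: intracellular parasites grown in NIH/3T3 mouse fibroblasts as host cells; luminescent beta-galactosidase reporter signal from transgenic T. cruzi replicating inside host cells; inhibitors lower the luminescence signal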
[6] = NIH3T3 cell viability loss – ATP luminescence, mouse fibroblasts, counter-screen, dose response (AID 2010); type: functional, cell-based;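 also: cells exposed to compound for about 90 hours before reading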
Cytochrome P450 2C19 = Cytochrome P450 2C19 (Homo sapiens, UniProt P33261); assay: Cytochrome panel assay with activity outcomes. Panel member name: p450-cyp2c19 Compounds with AC50 equal or less than 10 uM are considered active; type: functional
Chain of Cytochrome P450 2C19 (P33261 whole entry): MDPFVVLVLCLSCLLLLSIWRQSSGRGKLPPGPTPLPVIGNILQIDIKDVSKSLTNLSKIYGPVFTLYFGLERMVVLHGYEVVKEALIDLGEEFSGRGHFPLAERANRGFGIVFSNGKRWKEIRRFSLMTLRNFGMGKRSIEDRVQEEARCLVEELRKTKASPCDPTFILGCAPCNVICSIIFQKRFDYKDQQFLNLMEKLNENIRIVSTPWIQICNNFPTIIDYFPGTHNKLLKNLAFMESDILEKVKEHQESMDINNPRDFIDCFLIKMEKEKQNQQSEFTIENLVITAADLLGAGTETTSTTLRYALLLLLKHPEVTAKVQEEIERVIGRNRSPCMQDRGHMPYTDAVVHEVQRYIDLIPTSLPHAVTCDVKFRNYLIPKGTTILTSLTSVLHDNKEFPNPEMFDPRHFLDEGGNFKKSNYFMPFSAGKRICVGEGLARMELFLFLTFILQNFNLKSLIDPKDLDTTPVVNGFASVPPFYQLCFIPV

Cytochrome P450 2C9 = Cytochrome P450 2C9 (Homo sapiens, UniProt P11712)
Chain of Cytochrome P450 2C9 (P11712 whole entry): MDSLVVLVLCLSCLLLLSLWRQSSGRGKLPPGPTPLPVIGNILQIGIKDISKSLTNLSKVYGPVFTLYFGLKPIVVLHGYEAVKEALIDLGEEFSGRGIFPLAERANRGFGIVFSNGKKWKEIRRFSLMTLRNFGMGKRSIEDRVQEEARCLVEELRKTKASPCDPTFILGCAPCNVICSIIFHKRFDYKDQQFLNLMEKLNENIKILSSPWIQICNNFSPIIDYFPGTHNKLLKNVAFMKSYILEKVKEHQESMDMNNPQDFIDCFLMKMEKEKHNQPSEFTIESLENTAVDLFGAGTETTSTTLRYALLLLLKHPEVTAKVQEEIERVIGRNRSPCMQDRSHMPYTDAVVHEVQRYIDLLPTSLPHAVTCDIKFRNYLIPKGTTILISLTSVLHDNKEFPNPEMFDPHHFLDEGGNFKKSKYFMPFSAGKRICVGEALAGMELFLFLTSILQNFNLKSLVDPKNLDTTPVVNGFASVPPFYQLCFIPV

Streptococcus = assay: GAS UMAA2166 growth inhibition – luminescence, BacTiterGlo, counter-screen for streptokinase expression inhibitor project, dose response (AID 1915); type: functional, organism-based;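 also: potency for reduction of bacterial viability or growth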
[7] = test system: Streptococcus sp. 'group A'; assay: Streptococcus pyogenes SK(-)GAS viability under kanamycin – luminescence, BacTiterGlo, confirmation, counter-screen for streptokinase expression inhibitor project, dose response (AID 1900); type: functional, organism-based

SMILES: CC(C)(C)c1csc(NC(=O)Cn2cnc3ccccc3c2=O)n1
EC50 [1]: > 150 µM (inconclusive)
EC50 [2]: > 38 µM (not active)

EC50 [3]: > 195 µM (not active)
SMILES: COc1ccc(C(=O)C2CCCN(S(=O)(=O)c3ccccc3F)C2)c(C)c1 (stereo unspecified)

SMILES: COC(=O)/C(=N/Nc1ccc(C)cc1)N1CCCc2ccccc21
CC50 [4]: 22.3 µM (active)

SMILES: COc1ccc(CCn2c(C)cc3c(c2=O)C(c2ccc4c(c2)OCO4)C(C#N)=C(N)O3)cc1OC (stereo unspecified)
EC50 [1]: > 160 µM (inactive)
EC50 [2]: > 38 µM (not active)

SMILES: Cc1nc2c(=O)oc3ccccc3c2n1-c1ccccc1
EC50 [1]: > 150 µM (inactive)
EC50 [2]: 2.15 µM (active)

SMILES: O=C(Oc1ccc2ccc(=O)oc2c1)c1ccco1
EC50 [5]: > 60 µM (not active)
EC50 [6]: > 60 µM (not active)

SMILES: CCc1nnc(NC(=O)CSc2nnc(CNc3cccc(C)c3)n2-c2ccccc2)s1
EC50 [1]: > 150 µM (inactive)
EC50 [2]: > 38 µM (not active)

SMILES: CCOc1ccc(CN(C)CC(=O)Nc2cccc(S(=O)(=O)N(C)c3ccccc3)c2)cc1
EC50 [5]: 0.181 µM (active)
EC50 [6]: > 60 µM (not active)

EC50 [3]: > 195 µM (not active)
SMILES: COC(=O)c1cccc(NC(=O)CN2CCN(Cc3ccccc3)CC2)c1

EC50 [3]: > 195 µM (not active)
SMILES: Nc1cccc(/C=C/C(=O)O)c1

AC50 (Cytochrome P450 2C19; read-out: AC50): 17.8 µM (inconclusive)
SMILES: CCNc1nc(NCC)nc(ON=C(C)C)n1

EC50 [3]: > 195 µM (not active)
SMILES: Cc1ccc(S(=O)(=O)N(C)c2c(C)ccc(S(=O)(=O)N3CCN(C)CC3)c2C)cc1

EC50 [3]: > 195 µM (not active)
SMILES: Cn1c(=O)c2cn(-c3ccc4c(c3)OCCO4)cc2n(C)c1=O

SMILES: CC(=O)COc1ccc2c3c(c(=O)oc2c1)CCCC3
CC50 [4]: > 50 µM (active)

SMILES: CCNc1nc(NC(C)C)nc(N2CC(=O)N(CC(=O)OCC)C2=N)n1
CC50 [4]: 25.2 µM (active)

SMILES: Cc1ccc(NC(=O)CC2SC(N/N=C3\CCCc4ccccc43)=NC2=O)cc1 (stereo unspecified)
CC50 [4]: 15.5 µM (active)

SMILES: C=CCNC(=S)N/N=C/c1ccc(-c2ccc(OC)cc2)o1
EC50 [1]: > 150 µM (inactive)
EC50 [5]: 1.76 µM (active)
EC50 [6]: > 60 µM (not active)
EC50 [2]: > 38 µM (not active)

SMILES: O=C(N/N=C/c1cccc(Oc2ccccc2)c1)c1cccc(Br)c1
CC50 [4]: 17 µM (active)

AC50 (Cytochrome P450 2C19): inconclusive
SMILES: Nc1ccn([C@H]2O[C@@H](COP(=O)(O)O)[C@@H](O)[C@H]2O)c(=O)n1

SMILES: O=C(CSCc1ccc(Cl)cc1)Nc1cc([N+](=O)[O-])ccc1O
EC50 [1]: > 150 µM (inactive)
EC50 [2]: 0.491 µM (active)

SMILES: CCN1C(=O)/C(=C2/C(=O)Nc3ccccc32)c2cc(Br)ccc21
EC50 [5]: 1.3 µM (active)
EC50 [6]: > 60 µM (inconclusive)

AC50 (Cytochrome P450 2C9): 39.8 µM (inconclusive)
SMILES: c1ccc(CSc2nnc(-c3sccc3-n3cccc3)o2)cc1

SMILES: CC1(C)Cc2c(C#N)c(SCCOc3ccccc3)nc(N3CCOCC3)c2CO1
EC50 [5]: 1.49 µM (active)
EC50 [6]: > 60 µM (not active)

AC50 (Cytochrome P450 2C9): 28.2 µM (inconclusive)
SMILES: Cc1nc(S(=O)(=O)NC2CCCCC2)c(C#N)c(C)c1Cl

SMILES: CCOc1ccc(NCC(=O)c2ccc(C)cc2)cc1
EC50 [3]: > 195 µM (not active)
EC50 [5]: 1.38 µM (active)
EC50 [6]: > 30 µM (not active)

AC50 (Cytochrome P450 2C9): 10 µM (inconclusive)
SMILES: Cc1ccc2cc(CCNC(=O)c3ccc(Br)o3)c(O)nc2c1

AC50 (Cytochrome P450 2C9): 2.51 µM (inconclusive)
SMILES: Nc1cc2c(nc3c4ccccc4c(N)cc3[n+]2-c2cccc3ccccc23)c2ccccc12.Nc1cc2c(nc3c4ccccc4ccc3[n+]2-c2cccc3ccccc23)c2ccccc12

SMILES: Cc1c(O)cccc1C(=O)N[C@@H](CSc1ccccc1)[C@H](O)CN1C[C@H]2CCCC[C@H]2C[C@H]1C(=O)NC(C)(C)C
EC50 [5]: 3.42 µM (active)
EC50 [6]: > 60 µM (not active)

AC50 (Cytochrome P450 2C9): 20 µM (inconclusive)
SMILES: O=C(NNC(=O)c1ccccc1O)c1ccc(Cl)cc1

SMILES: N#Cc1ccc(OCCOCCNC2CCCC2)cc1
EC50 [5]: 0.2 µM (active)
EC50 [6]: > 60 µM (not active)

SMILES: CCn1c2ccc(F)cc2c2nnc(SCCN3CCCCC3)nc21
EC50 [5]: 0.777 µM (active)
EC50 [6]: > 60 µM (not active)

SMILES: CSc1cc(-c2ccccc2)n(C)c(=O)c1C#N
EC50 [1]: 117 µM (active)
EC50 [2]: > 38 µM (not active)

EC50 [3]: > 195 µM (not active)
SMILES: O=C(COC(=O)c1cc(Cl)ccc1O)NNC(=O)c1ccc([N+](=O)[O-])cc1

SMILES: CNC(S)=Nc1sc2c(c1C(=O)OC)CCC2
CC50 [4]: 36.2 µM (active)

SMILES: CN1CCN(Cc2cccc(Oc3ccc(Cl)cc3)c2)CC1
EC50 [5]: 0.267 µM (active)
EC50 [6]: > 60 µM (inconclusive)

SMILES: O=[N+]([O-])c1ccc(C2CCCC/C2=N/OCc2ccc(F)cc2)c([N+](=O)[O-])c1 (stereo unspecified)
EC50 [1]: > 160 µM (inactive)
EC50 [5]: 0.492 µM (active)
EC50 [6]: > 60 µM (not active)
EC50 [2]: 21.6 µM (active)

SMILES: CCOc1ccc(CN2CCC(C(=O)N3CCN(c4ccccc4F)CC3)CC2)cc1OC
EC50 [5]: 0.182 µM (active)
EC50 [6]: > 30 µM (not active)

SMILES: O=C(NCC1CCCO1)c1cc2c3ccccc3nc-2c(-c2cccc(Br)c2)[nH]1 (stereo unspecified)
EC50 [5]: 0.882 µM (active)
EC50 [6]: > 60 µM (not active)

SMILES: Cn1c(=O)c(=O)n(C)c2cc(S(=O)(=O)NCCN3CCN(c4ccccc4F)CC3)ccc21
EC50 [5]: 0.496 µM (active)
EC50 [6]: > 60 µM (not active)

SMILES: Cn1c(=S)c2nc(SCCN3CCCC3)[nH]c2n(C)c1=O
AC50 (Cytochrome P450 2C9): 3.16 µM (inconclusive)

SMILES: COc1ccc(CCNC(=O)[C@H](C)N2C(=O)N3CCc4c([nH]c5ccccc45)[C@@]3(C)C2=O)cc1
EC50 [5]: 1.97 µM (active)
EC50 [6]: > 60 µM (not active)

SMILES: O=C(CCc1ccc(Oc2cc([N+](=O)[O-])cc([N+](=O)[O-])c2)cc1)NC1CCCC1
EC50 [5]: 0.106 µM (active)
EC50 [6]: > 30 µM (not active)

EC50 [3]: > 195 µM (not active)
SMILES: Cc1ccc(-c2csc(NC(=O)c3ccc(S(=O)(=O)N4CCc5ccccc54)cc3)n2)cc1

AC50 (Cytochrome P450 2C9): 10 µM (inconclusive)
SMILES: CC(C)c1nnc(-c2ccc(Cl)cc2)c(N(C)C)n1

EC50 [3]: > 195 µM (not active)
SMILES: Cc1cccc(OCC(=O)OC2CCN(C)CC2)c1

SMILES: O=[N+]([O-])c1ccc(CSCc2ccc(Cl)cc2)cc1
AC50 (Cytochrome P450 2C9): 7.94 µM (inconclusive)

SMILES: O=c1[nH]c(NCCO)nc2c1C1(CCCCC1)Cc1ccccc1-2
CC50 [4]: > 50 µM (active)

SMILES: CC(=O)NC12CC3CC(C1)CC(C(=O)Oc1ccc(N(C)S(=O)(=O)c4cc(C)ccc4C)cc1)(C3)C2
CC50 [4]: 34.2 µM (active)

SMILES: CN1CCN(Cc2ccc(Sc3ccc(Cl)cc3)c([N+](=O)[O-])c2)CC1
EC50 [5]: 1.13 µM (active)
EC50 [6]: > 60 µM (not active)

SMILES: COC(=O)C1=C(C)N(c2ccc(Cl)cc2)/C(=C/c2ccc(O)cc2)C1=O
CC50 [4]: 36.3 µM (active)

SMILES: Cc1ccccc1N1CCN(CCN2C(=O)CC(=C3c4ccccc4-c4ccccc43)C2=O)CC1
EC50 [1]: > 160 µM (inactive)
EC50 [2]: 3.89 µM (active)

AC50 (Cytochrome P450 2C19; read-out: AC50): 22.4 µM (inconclusive)
SMILES: CCCCNC(=O)NS(=O)(=O)c1cnccc1Sc1ccc(Cl)cc1

SMILES: O=C(Cc1cccs1)Nc1cccc(-c2nc3ccccc3[nH]2)c1
EC50 [1]: > 150 µM (inconclusive)
EC50 [2]: 3.52 µM (active)

EC50 [3]: 23 µM (active)
SMILES: O=C(COC(=O)c1cc[n+]([O-])cc1)Nc1cccc(Cl)c1Cl

SMILES: CCC(=O)Nc1ccccc1C(=O)OCC(=O)c1ccc2ccccc2c1
CC50 [4]: 25 µM (active)

SMILES: CCCCCCCCn1c(N2CCN(c3cccc(Cl)c3)CC2)nc2c1c(=O)[nH]c(=O)n2C
EC50 [5]: 2.22 µM (active)
EC50 [6]: > 60 µM (not active)

EC50 [3]: > 195 µM (not active)
SMILES: CC(C)(C)NS(=O)(=O)c1cc2c3c(c1)CCN3C(=O)CC2

SMILES: C=CCN(C(=O)CSC1=NC(=O)CN1C(C)=O)c1nc(C)c(-c2ccccc2)s1
EC50 [5]: 1.58 µM (active)
EC50 [6]: > 30 µM (not active)

SMILES: CCc1c(C)sc(NC(=O)CN2CCN(C(=O)c3ccco3)CC2)c1C(=O)OC
CC50 [4]: 12.7 µM (active)

EC50 [3]: 2.01 µM (active)
SMILES: N#Cc1cc2c(nc1SCC(=O)N1CCOCC1)CCCCC2

SMILES: CCCCn1c(-c2ccco2)nc2oc3ccccc3c(=O)c2c1=O
EC50 (Streptococcus): 46.1 µM (active)
EC50 [7]: 64 µM (active)

SMILES: CC(C)C[C@H](NC(=O)c1[nH]cnc1C(=O)N[C@@H](Cc1ccccc1)C(=O)OC(C)(C)C)C(=O)OC(C)(C)C
EC50 (Streptococcus): 5.07 µM (active)
EC50 [7]: 2.33 µM (active)

EC50 [3]: > 195 µM (not active)
SMILES: Cc1ccccc1-c1nc2sc3c(c2c(=O)n1N)CCCC3

SMILES: COc1ccccc1Cn1c(=O)c2ccccc2n2c(Sc3ncnc4sccc34)nnc12
CC50 [4]: 19.6 µM (active)

SMILES: Fc1cccc(Cl)c1Cn1nnc(-c2ccc3c(c2)OCO3)n1
CC50 [4]: 26.2 µM (active)

EC50 [3]: > 195 µM (not active)
SMILES: c1ccc(-c2nn[nH]n2)nc1

EC50 [3]: > 195 µM (not active)
SMILES: Cc1cc(C)n(C(=O)c2ccncc2)n1
